Key:
mouse hair-matrix cells = assay: action on isolated mouse hair-matrix cells (energy metabolism activity in the mitochondria; change of form); assay type: cell-based; conditions: during peptide treatment
[1] = test system: hair cycle of mouse body hair; assay: effect of the functional peptide to the hair cycle of mouse body hair; assay type: in vivo; conditions: C3H/He mouse, applied to skin, 1% peptide
Excerpt: For the application of KAPs as hair growth agent, there is a possible problem for permeability to tissues in an intact size. Therefore, from the point of view of being a hair constituent element, the minimum repeat unit on KAP sequences was searched and designing of peptides was attempted with the crosslinking within the tissues as a goal. After preparing alignment from the primary sequence of amino acid obtained in Example 7, repeat motifs are searched, and 2 functional peptides, namely mouse high sulfur type KAPs: N′-SCCXPSCCXP-C′ (X: Q, V, R, I) [Seq. ID No. 2031, and mouse high G/Y type KAPs: N′-YGGXGYGSGY-C′ (X: Y, L, F)[Seq. ID No. 204] were designed. By using these functional peptides, the action to hair formation and hair-matrix cells was evaluated. […] Peptide solvent (Plasebo) was used as a negative control, and […] MINOXIDIL was used as a positive control. […] The effect was significant compared not only with peptide solvent as a negative control (FIG. 30), but also with MINOXIDIL of the same concentration, being a positive control (FIG. 31).

Substance: N′-YGGXGYGSGY-C′ (X: Y, L, F) [high G/Y type peptide]
- change of form of hair-matrix cells (mouse hair-matrix cells): a change of form of hair-matrix cells associated with the differentiation was observed
- effect to the hair cycle of mouse body hair (duration until hair coat / formation of body hair) [1]: shortening effect of the duration until hair coat was observed
